The values that follow come from publication PMC4192545, “Suramin Inhibits Hsp104 ATPase and Disaggregase Activity” (PLoS ONE, 2014).

The target in one assay is T1, Hsp104^T317A (Saccharomyces cerevisiae, UniProt P31539, T317A).
T1 construct: made in house; host or cells: E. coli BL21-DE3 RIL
As to the kind of experiment: ATPase assay, Hsp104^T317A. In kind it is biochemical, yeast. The settings on record: read-out: Hsp104^T317A ATPase activity relative to uninhibited protein. The procedure: Wild-type or mutant Hsp104 (0.25 µM monomer) in ATPase buffer (20 mM HEPES-KOH pH 7.4, 20 mM NaCl and 10 mM MgCl2) was incubated for 60 or 10 min at 25°C in the presence of ATP (1 mM) as noted. ATPase activity was assessed by the release of inorganic phosphate determined by using a malachite green phosphate detection kit (Innova).
Figure 7 Hsp104 variants respond differently to Suramin than Hsp104^WT. (A) Hsp104 variants (0.25 µM monomer) were incubated for 10 min with ATP (1 mM) and varying concentrations of Suramin. The amount of Pi produced was measured by absorbance at 635 nm. Absorbance values were normalized to the absorbance produced by each Hsp104 variant in the absence of inhibitor. Values represent mean ±S.D. (n = 6). (B) Urea-denatured firefly luciferase aggregates were incubated for 90 min at 25°C with Hsp104 variants (1 µM hexamer) plus 1∶1 mixtures of ATP and ATPγS (or ATP alone) and varying concentrations of Suramin. Luciferase reactivation was then determined and normalized to untreated disaggregase activity for each variant in the presence of ATPγS: ATP (or ATP alone). 1∶1 mixtures of ATP and ATPγS were used for Hsp104^WT and Hsp104^T317A, while ATP alone was used for Hsp104^A503V and Hsp104^N728A. Values represent mean ±S.D. (n = 6–12).

The target of another assay is T2, Hsp104 (Saccharomyces cerevisiae, UniProt P31539).
T2 construct: made in house; host or cells: E. coli BL21-DE3 RIL
T2 sequence (P31539 whole entry): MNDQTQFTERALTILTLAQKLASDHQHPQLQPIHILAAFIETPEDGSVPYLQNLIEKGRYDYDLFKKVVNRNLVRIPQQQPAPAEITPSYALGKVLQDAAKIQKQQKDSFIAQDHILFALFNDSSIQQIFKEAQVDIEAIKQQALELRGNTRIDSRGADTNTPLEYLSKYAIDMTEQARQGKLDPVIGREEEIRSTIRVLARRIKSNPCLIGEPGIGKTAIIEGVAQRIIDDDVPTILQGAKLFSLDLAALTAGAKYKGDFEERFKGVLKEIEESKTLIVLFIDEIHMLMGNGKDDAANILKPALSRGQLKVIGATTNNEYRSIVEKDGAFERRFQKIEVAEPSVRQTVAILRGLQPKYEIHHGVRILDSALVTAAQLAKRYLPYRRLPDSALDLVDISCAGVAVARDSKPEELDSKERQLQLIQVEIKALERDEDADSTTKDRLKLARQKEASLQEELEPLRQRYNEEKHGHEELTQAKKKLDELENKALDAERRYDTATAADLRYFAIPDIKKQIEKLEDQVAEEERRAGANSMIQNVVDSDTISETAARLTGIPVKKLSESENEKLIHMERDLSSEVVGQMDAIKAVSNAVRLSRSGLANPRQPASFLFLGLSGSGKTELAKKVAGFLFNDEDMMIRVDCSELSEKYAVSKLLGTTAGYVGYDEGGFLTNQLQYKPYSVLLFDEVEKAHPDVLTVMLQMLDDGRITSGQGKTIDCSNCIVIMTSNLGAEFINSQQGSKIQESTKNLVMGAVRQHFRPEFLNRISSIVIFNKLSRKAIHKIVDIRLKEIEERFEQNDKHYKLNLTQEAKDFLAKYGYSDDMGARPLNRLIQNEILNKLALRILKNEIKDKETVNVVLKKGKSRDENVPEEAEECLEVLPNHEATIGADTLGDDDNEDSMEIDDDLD
Put plainly: High-throughput Hsp104 ATPase plate assay (malachite green, 384-well). It is filed as biochemical, yeast. To be noted: 60 min. The procedure:
ATPase activity was assessed by the release of inorganic phosphate determined using a malachite green phosphate detection kit (Innova Biosciences, Cambridge, United Kingdom). Microtiter plates (384-well) were purchased from PerkinElmer (Waltham, MA). Three libraries were screened: The NIH Clinical Collection (450 small molecules), the Spectrum Collection (2,000 compounds, MicroSource, Gaylordsville, CT) and the HitFinder Collection (14,400 compounds, Maybridge).
We adapted the inorganic phosphate colorimetric assay to fit a 384-well plate format. A Ź-factor between 0.8 and 1 was calculated for the assay. A 2X Hsp104 stock solution was dispensed into each well using a Biotek microflo (Biotek Instruments, Winooski, VT). Compounds were then transferred using a Janus 96/384 Modular Dispensing Tool (PerkinElmer). Finally, a 2X ATP solution was dispensed using the Biotek microflo. Final concentrations of Hsp104 (monomer) and ATP were 0.25 µM and 1 mM respectively. Seeking to avoid the discovery of competitive inhibitors, we designed our high-throughput screen to use a 100-fold excess of ATP with respect to the test compounds (10 µM each). Final buffer conditions were 20 mM HEPES-KOH pH 7.4, 20 mM NaCl and 10 mM MgCl2. The ATPase reaction was allowed to continue for 60 min, at which time the reaction was terminated by addition of the colorimetric reagent. Absorbance was measured at 635 nm on an EnVision Xcite Multilabel plate reader (PerkinElmer). Hits were tested in duplicate. […] Ten of these were subjected to a 6-point titration (40, 13.3, 4.44, 1.45, 0.49 and 0 µM) in the absence or presence of Triton X-100, BSA, or both Triton X-100 and BSA at the specified concentrations. Heat maps were created in Excel for Mac 2011 (Microsoft Corporation) using the Conditional Formatting feature (Color Scales).
We aimed to identify small molecules capable of inhibiting Hsp104. To do so, we employed high-throughput screening using Hsp104 ATPase activity as a proxy for function. To detect changes in Hsp104 ATPase activity, we used a colorimetric assay detecting free inorganic phosphate (Pi) based on the formation of a colored complex between Pi and a dye molecule under acidic conditions, [44]. Pi is produced from the Hsp104-driven hydrolysis of ATP. The colored complex concentration, a surrogate for Pi concentration and ATPase rate, is determined by measuring the absorbance of a sample at 635 nm. We used recombinant Hsp104 purified from E. coli. An Hsp104 mutant with mutations in both NBD1 and NBD2 Walker B sequence motifs (Hsp104^DWB, carrying ATPase ablating mutations E285Q: E687Q) was used as a negative control for ATPase activity. Hsp104^WT activity results in a high A635 (high ATPase), while Hsp104^DWB activity results in a low A635 (low ATPase). We optimized the Pi colorimetric assay to fit a 384-well plate format. We selected the Hsp104 concentration (0.25 µM) on the basis of previous experience in our laboratory. The ATP concentration was selected to be in a 100-fold excess of ATP with respect to the test compounds. […] We screened 16,850 compounds from the NIH Clinical Collection as well as the Spectrum and Maybridge compound libraries. […] For instance, hexachlorophene and tannic acid inhibit Hsp104 ATPase activity by ∼80%, while Merbromin and Sennoside a inhibit by ∼20% ( Table 1 ).

T1 sequence (P31539 whole entry T317A): as the sequence (P31539 whole entry) above, with T317A counted along it

What is called inhibition is the change of the read-out against control, counted positive when it falls. Turning to `Cc1ccc(C(=O)Nc2ccc(S(=O)(=O)O)c3cc(S(=O)(=O)O)cc(S(=O)(=O)O)c23)cc1NC(=O)c1cccc(NC(=O)Nc2cccc(C(=O)Nc3cc(C(=O)Nc4ccc(S(=O)(=O)O)c5cc(S(=O)(=O)O)cc(S(=O)(=O)O)c45)ccc3C)c2)c1` [Suramin], the activity at 100 µM on Hsp104^T317A is roughly 65%. Also, the inhibition at 10 µM at Hsp104 (10 µM compound, Hsp104 0.25 µM monomer, ATP 1 mM, mean ±S.D. (n = 2), read-out: % Inhibition of Hsp104 ATP hydrolysis) is 50.8 ± 2.83%. Also, the “Inhibition of Hsp104 ATPase activity in the presence of both Triton X-100 and BSA” value at Hsp104 (titration 40-0.49 µM, Triton X-100 and BSA, heat map Figure 1A) is “most significantly inhibit Hsp104 ATPase activity”.
